# In PMC7562955 (Nature Communications, 2020):
# Biological target: T1, TLR7 (Homo sapiens, UniProt Q9NYK1)
# T1 sequence (Q9NYK1 27-1049): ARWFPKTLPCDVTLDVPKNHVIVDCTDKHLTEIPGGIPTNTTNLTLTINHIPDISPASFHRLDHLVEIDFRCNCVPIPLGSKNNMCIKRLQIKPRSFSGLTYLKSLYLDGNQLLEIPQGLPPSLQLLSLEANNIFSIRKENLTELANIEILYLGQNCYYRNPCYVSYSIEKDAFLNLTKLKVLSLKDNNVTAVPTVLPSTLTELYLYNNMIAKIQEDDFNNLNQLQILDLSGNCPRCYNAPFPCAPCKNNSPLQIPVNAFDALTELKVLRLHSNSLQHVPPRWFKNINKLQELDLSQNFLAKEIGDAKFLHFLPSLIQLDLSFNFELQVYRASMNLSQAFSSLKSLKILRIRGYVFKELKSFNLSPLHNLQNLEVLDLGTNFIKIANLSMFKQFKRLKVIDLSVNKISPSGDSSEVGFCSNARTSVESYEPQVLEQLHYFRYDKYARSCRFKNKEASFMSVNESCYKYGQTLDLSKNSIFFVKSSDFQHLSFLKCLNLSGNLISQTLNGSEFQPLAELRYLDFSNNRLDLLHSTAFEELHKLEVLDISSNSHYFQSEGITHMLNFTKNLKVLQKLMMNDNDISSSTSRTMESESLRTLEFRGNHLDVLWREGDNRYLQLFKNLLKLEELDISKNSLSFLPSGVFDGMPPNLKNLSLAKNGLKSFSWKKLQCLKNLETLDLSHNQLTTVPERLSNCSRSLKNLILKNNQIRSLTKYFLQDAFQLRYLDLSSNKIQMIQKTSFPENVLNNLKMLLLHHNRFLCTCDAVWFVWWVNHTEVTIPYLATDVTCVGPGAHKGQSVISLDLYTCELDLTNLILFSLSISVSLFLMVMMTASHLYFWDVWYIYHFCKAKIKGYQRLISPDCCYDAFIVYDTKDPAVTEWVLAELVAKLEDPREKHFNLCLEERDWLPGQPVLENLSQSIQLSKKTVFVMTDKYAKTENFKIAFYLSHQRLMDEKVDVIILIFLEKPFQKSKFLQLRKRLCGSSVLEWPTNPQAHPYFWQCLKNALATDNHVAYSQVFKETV
# Experiment: Dose-response relationship between antagonist and R848, human TLR7 reporter gene assay
# Assay type: cell-based
# Design: host or cells: HEK293 (TLR7/NF-κB/SEAPorter)
# Method: Compounds were dissolved in dimethyl sulfoxide. Human TLR7 reporter cell line (Novus Biological) were seeded in 96-well microtiter plate (AGC techno glass) at 5 × 10^4 cells/well in DMEM (GIBCO) with 10% fetal bovine serum (GIBCO), and 10 μg ml^−1 Blastcidin S HCl (GIBCO) and incubated at 37 °C in 5% CO2. The plates were incubated over-night and then addition with various concentrations of compound. After 30 min, R848 (human TLR7/8 ligand) that was diluted with the medium was added, wherein final concentration was adjusted to 0.01, 0.03, 0.1, 0.3, 1, 3, 10, 30, 100, 300 and 1000 μM. The plates were then incubated an additional 20 ± 1 h at 37 °C in 5% CO2, and then the SEAP activity was measured as activation of human TLR7. The SEAP activity was evaluated as follows: pNPP (Invitrogen) was added to the incubated sample (50 μl/well); after 15 min, 4 mol l^−1 sodium hydroxide solution (nacalai tesque) was added thereto (50 μl/well) to quench the reaction; and the absorbance of each sample was measured at 405 nm with microplate reader SpectraMax M4 (Molecular Devices).
smiles,measurement,setting,value
CCOc1nc(C)c2nc(-c3cncc(F)c3)n(Cc3ccc(CN4C[C@@H]5C[C@H]4CN5C)cc3)c2n1 [Cpd-7],mode of action against R848,,acted as antagonists
same,TLR7 reporter signal,"Cpd-7 0.001 µM, log10[R848 (µM)] 0",15.1994
same,TLR7 reporter signal,"Cpd-7 0.001 µM, log10[R848 (µM)] 0.477121",53.0748
same,TLR7 reporter signal,"Cpd-7 0.001 µM, log10[R848 (µM)] 1",91.3639
same,TLR7 reporter signal,"Cpd-7 0.001 µM, log10[R848 (µM)] 1.47712",103.082
same,TLR7 reporter signal,"Cpd-7 0.001 µM, log10[R848 (µM)] 2",104.508
same,TLR7 reporter signal,"Cpd-7 0.001 µM, log10[R848 (µM)] 2.47712",104.681
same,TLR7 reporter signal,"Cpd-7 0.001 µM, log10[R848 (µM)] 3",101.38
same,TLR7 reporter signal,"Cpd-7 0.001 µM, log10[R848 (µM)] -0.522879",2.983
same,TLR7 reporter signal,"Cpd-7 0.001 µM, log10[R848 (µM)] -1",1.3957
same,TLR7 reporter signal,"Cpd-7 0.001 µM, log10[R848 (µM)] -1.52288",1.22
same,TLR7 reporter signal,"Cpd-7 0.001 µM, log10[R848 (µM)] -2",0.09581
same,TLR7 reporter signal,"Cpd-7 0.003 µM, log10[R848 (µM)] 0",11.9465
same,TLR7 reporter signal,"Cpd-7 0.003 µM, log10[R848 (µM)] 0.477121",48.0206
same,TLR7 reporter signal,"Cpd-7 0.003 µM, log10[R848 (µM)] 1",90.4952
same,TLR7 reporter signal,"Cpd-7 0.003 µM, log10[R848 (µM)] 1.47712",102.689
same,TLR7 reporter signal,"Cpd-7 0.003 µM, log10[R848 (µM)] 2",104.173
same,TLR7 reporter signal,"Cpd-7 0.003 µM, log10[R848 (µM)] 2.47712",102.967
same,TLR7 reporter signal,"Cpd-7 0.003 µM, log10[R848 (µM)] 3",101.934
same,TLR7 reporter signal,"Cpd-7 0.003 µM, log10[R848 (µM)] -0.522879",2.073
same,TLR7 reporter signal,"Cpd-7 0.003 µM, log10[R848 (µM)] -1",1.332
same,TLR7 reporter signal,"Cpd-7 0.003 µM, log10[R848 (µM)] -1.52288",1.335
same,TLR7 reporter signal,"Cpd-7 0.003 µM, log10[R848 (µM)] -2",-0.4152
same,TLR7 reporter signal,"Cpd-7 0.01 µM, log10[R848 (µM)] 3",101.214
same,TLR7 reporter signal,"Cpd-7 0.1 µM, log10[R848 (µM)] 0",3.483
same,TLR7 reporter signal,"Cpd-7 0.1 µM, log10[R848 (µM)] 0.477121",8.9858
same,TLR7 reporter signal,"Cpd-7 0.1 µM, log10[R848 (µM)] 1",46.2209
same,TLR7 reporter signal,"Cpd-7 0.1 µM, log10[R848 (µM)] 1.47712",89.5722
same,TLR7 reporter signal,"Cpd-7 0.1 µM, log10[R848 (µM)] 2",103.066
same,TLR7 reporter signal,"Cpd-7 0.1 µM, log10[R848 (µM)] 2.47712",105.195
same,TLR7 reporter signal,"Cpd-7 0.1 µM, log10[R848 (µM)] 3",99.2702
same,TLR7 reporter signal,"Cpd-7 0.1 µM, log10[R848 (µM)] -0.522879",1.691
same,TLR7 reporter signal,"Cpd-7 0.1 µM, log10[R848 (µM)] -1",1.377
same,TLR7 reporter signal,"Cpd-7 0.1 µM, log10[R848 (µM)] -1.52288",1.495
same,TLR7 reporter signal,"Cpd-7 0.1 µM, log10[R848 (µM)] -2",-0.1134
same,TLR7 reporter signal,"Cpd-7 0.3 µM, log10[R848 (µM)] 0",1.803
same,TLR7 reporter signal,"Cpd-7 0.3 µM, log10[R848 (µM)] 0.477121",3.628
same,TLR7 reporter signal,"Cpd-7 0.3 µM, log10[R848 (µM)] 1",15.5922
same,TLR7 reporter signal,"Cpd-7 0.3 µM, log10[R848 (µM)] 1.47712",56.9825
same,TLR7 reporter signal,"Cpd-7 0.3 µM, log10[R848 (µM)] 2",94.1266
same,TLR7 reporter signal,"Cpd-7 0.3 µM, log10[R848 (µM)] 2.47712",104.981
same,TLR7 reporter signal,"Cpd-7 0.3 µM, log10[R848 (µM)] 3",99.9984
same,TLR7 reporter signal,"Cpd-7 0.3 µM, log10[R848 (µM)] -0.522879",2.988
same,TLR7 reporter signal,"Cpd-7 0.3 µM, log10[R848 (µM)] -1",1.0827
same,TLR7 reporter signal,"Cpd-7 0.3 µM, log10[R848 (µM)] -1.52288",0.3928
same,TLR7 reporter signal,"Cpd-7 0.3 µM, log10[R848 (µM)] -2",-0.2667
same,TLR7 reporter signal,"Cpd-7 1 µM, log10[R848 (µM)] 0",1.865
same,TLR7 reporter signal,"Cpd-7 1 µM, log10[R848 (µM)] 0.477121",1.87
same,TLR7 reporter signal,"Cpd-7 1 µM, log10[R848 (µM)] 1",3.318
same,TLR7 reporter signal,"Cpd-7 1 µM, log10[R848 (µM)] 1.47712",15.4645
same,TLR7 reporter signal,"Cpd-7 1 µM, log10[R848 (µM)] 2",58.664
same,TLR7 reporter signal,"Cpd-7 1 µM, log10[R848 (µM)] 2.47712",94.6679
same,TLR7 reporter signal,"Cpd-7 1 µM, log10[R848 (µM)] 3",98.5819
same,TLR7 reporter signal,"Cpd-7 1 µM, log10[R848 (µM)] -0.522879",2.201
same,TLR7 reporter signal,"Cpd-7 1 µM, log10[R848 (µM)] -1",1.343
same,TLR7 reporter signal,"Cpd-7 1 µM, log10[R848 (µM)] -1.52288",0.6276
same,TLR7 reporter signal,"Cpd-7 1 µM, log10[R848 (µM)] -2",-0.3625
same,TLR7 reporter signal,"Cpd-7 3 µM, log10[R848 (µM)] 0",1.3957
same,TLR7 reporter signal,"Cpd-7 3 µM, log10[R848 (µM)] 0.477121",2.034
same,TLR7 reporter signal,"Cpd-7 3 µM, log10[R848 (µM)] 1",1.935
same,TLR7 reporter signal,"Cpd-7 3 µM, log10[R848 (µM)] 1.47712",4.379
same,TLR7 reporter signal,"Cpd-7 3 µM, log10[R848 (µM)] 2",17.1093
same,TLR7 reporter signal,"Cpd-7 3 µM, log10[R848 (µM)] 2.47712",59.4864
same,TLR7 reporter signal,"Cpd-7 3 µM, log10[R848 (µM)] 3",88.3569
same,TLR7 reporter signal,"Cpd-7 3 µM, log10[R848 (µM)] -0.522879",2.494
same,TLR7 reporter signal,"Cpd-7 3 µM, log10[R848 (µM)] -1",1.782
same,TLR7 reporter signal,"Cpd-7 3 µM, log10[R848 (µM)] -1.52288",0.9374
same,TLR7 reporter signal,"Cpd-7 3 µM, log10[R848 (µM)] -2",-0.1469
same,TLR7 reporter signal,"Cpd-7 10 µM, log10[R848 (µM)] 0",1.161
same,TLR7 reporter signal,"Cpd-7 10 µM, log10[R848 (µM)] 0.477121",1.935
same,TLR7 reporter signal,"Cpd-7 10 µM, log10[R848 (µM)] 1",1.487
same,TLR7 reporter signal,"Cpd-7 10 µM, log10[R848 (µM)] 1.47712",2.632
same,TLR7 reporter signal,"Cpd-7 10 µM, log10[R848 (µM)] 2",3.275
same,TLR7 reporter signal,"Cpd-7 10 µM, log10[R848 (µM)] 2.47712",13.6775
same,TLR7 reporter signal,"Cpd-7 10 µM, log10[R848 (µM)] 3",50.3984
same,TLR7 reporter signal,"Cpd-7 10 µM, log10[R848 (µM)] -0.522879",2.055
same,TLR7 reporter signal,"Cpd-7 10 µM, log10[R848 (µM)] -1",1.301
same,TLR7 reporter signal,"Cpd-7 10 µM, log10[R848 (µM)] -1.52288",0.4759
same,TLR7 reporter signal,"Cpd-7 10 µM, log10[R848 (µM)] -2",-0.6883
same,TLR7 reporter signal,"Cpd-7 30 µM, log10[R848 (µM)] 0",1.6017
same,TLR7 reporter signal,"Cpd-7 30 µM, log10[R848 (µM)] 0.477121",2.2708
same,TLR7 reporter signal,"Cpd-7 30 µM, log10[R848 (µM)] 1",2.316
same,TLR7 reporter signal,"Cpd-7 30 µM, log10[R848 (µM)] 1.47712",3.334
same,TLR7 reporter signal,"Cpd-7 30 µM, log10[R848 (µM)] 2",2.078
same,TLR7 reporter signal,"Cpd-7 30 µM, log10[R848 (µM)] 2.47712",2.285
same,TLR7 reporter signal,"Cpd-7 30 µM, log10[R848 (µM)] 3",8.593
same,TLR7 reporter signal,"Cpd-7 30 µM, log10[R848 (µM)] -0.522879",2.676
same,TLR7 reporter signal,"Cpd-7 30 µM, log10[R848 (µM)] -1",1.493
same,TLR7 reporter signal,"Cpd-7 30 µM, log10[R848 (µM)] -1.52288",0.7617
same,TLR7 reporter signal,"Cpd-7 30 µM, log10[R848 (µM)] -2",-0.5701
same,TLR7 reporter signal,"Cpd-7 100 µM, log10[R848 (µM)] 0",1.319
same,TLR7 reporter signal,"Cpd-7 100 µM, log10[R848 (µM)] 0.477121",2.528
same,TLR7 reporter signal,"Cpd-7 100 µM, log10[R848 (µM)] 1",1.127
same,TLR7 reporter signal,"Cpd-7 100 µM, log10[R848 (µM)] 1.47712",2.558
same,TLR7 reporter signal,"Cpd-7 100 µM, log10[R848 (µM)] 2",1.63
same,TLR7 reporter signal,"Cpd-7 100 µM, log10[R848 (µM)] 2.47712",1.53
same,TLR7 reporter signal,"Cpd-7 100 µM, log10[R848 (µM)] 3",0.3114
same,TLR7 reporter signal,"Cpd-7 100 µM, log10[R848 (µM)] -0.522879",1.865
same,TLR7 reporter signal,"Cpd-7 100 µM, log10[R848 (µM)] -1",1.004
same,TLR7 reporter signal,"Cpd-7 100 µM, log10[R848 (µM)] -1.52288",0.5685
same,TLR7 reporter signal,"Cpd-7 100 µM, log10[R848 (µM)] -2",-0.7138
